Molecules are shown by their SMILES.

The subject of one assay is Leishmania major. Put plainly: Effect on the leishmanicidal activity of murine peritoneal macrophage (3H-thymidine incorporation by living parasites). It counts as cell-based. The following applies: for cpm (counts per minute), 3H-thymidine incorporation by living parasites: control 18,273. How it is done:
Effect on the leishmanicidal activity of murine peritoneal macrophage The peritoneal cells collected as described above were seeded in 96-well flat bottom plates (Nunc, Roskiled, DK) at a concentration of 10^5 […]; and incubated per 24 hours at 37° C. At the end of the treatment, the cells not adherent to the well were separated and discharged, whereas the adherent cells were washed three time with culture medium and incubated for 24 hours with the compounds in question, then the cells were infected through a 24 hours incubation with promastigotes of Leishmania major (L. major, PVL49 strain supplied by Dr. Neal R. A., London School of Hygiene and Tropical Medicine, London, UK). At the end of the infection treatment each well was added with 100 μl of a 0.01% solution od sodium dodecylsulphate in RPMI 1640, and the plates were incubated for 30 minutes at 37° C. The Schneider's culture medium (Schneider Drosophila medium, Gibco Lab., Grand Island, N.Y., USA) with 30% of FCS was added. Each well was added with 1 μCi of ^3 H-thymidine, and a 72 hours incubation was carried out at 37° C. The incorporation of radioactivity by the living parasites inside the peritoneal cells, which is correlated to the infection degree and consequently to the leishmanicidal activity of the cells, was measured by collecting the cells by means of a cell-harvester and measuring the radioactivity with liquid scintillation β-counter.

A further assay has as its system BALB/C mice. Briefly: In vivo protection against septic shock (LPS-inoculated mice, survival). The following applies: LPS 50 mg/kg i.p., compound at time 0 or 30 minutes after LPS, checked for 8 days. The procedure:
Evaluation of the in vivo protection against septic shock
BALB/C mice (6 mice/group) weighting between 20 and 25 g, were intraperitoneally inoculated with 50 mg/kg of LPS (lipopolysaccharide-Sigma). The groups, except for the control, were inoculated with increasing doses of one of the compounds of the invention dissolved in physiologic solution having a final volume of 0.5 ml, at time 0 (i.e. together with LPS) or 30 minutes after the LPS inoculation. The mice were checked for 8 days to determined the survival percentage. Compound of Example 1 yields a survival percentage of about 65% at doses of 6.2 ug/mouse and 0.62 ug/mouse, and its isomer B yields a survival percentage of about 80% at a dose of 6.25 ug/mouse and of 75% at a dose of 62.5 ug/mouse.

For assay [1], the system named is murine peritoneal macrophages. Put plainly: Stimulation of IL-1 production by murine peritoneal macrophages (ELISA). The assay is classed as cell-based, BALB/C mice. The following applies: 96 h; for IL-1 production, Stimulation index: with respect to control; for IL-1 production, U/ml: control 15. The text has this: Stimulation of IL-1 production by murine peritoneal macrophages Murine peritoneal macrophages were obtained by inoculation of a solution of hydrolized starch (BDH Chemicals, Poole, Dorset, UK) into the peritoneal cavity of BALB/C mice, three days before sacrificing the animals. The peritoneal cells were then collected by washing the peritoneal cavity with a solution of RPMI 1640 containing 10% of FCS, and resuspended in the same solution at a concetration of 10^6 cells/ml in 96-well plates. The incubation was performed for 96 hours at 37° C. in the presence of the compounds in question. At the end of the treatment the supernatants were collected and used for dosing cytokine by means of a suitable ELISA commerical kit (Genzyme, Boston, Mass., USA).

Another assay has as its system murine peritoneal cells. Briefly: Stimulation of the nitric oxide by murine peritoneal cells (chemiluminescence). It counts as cell-based, BALB/C mice. The following applies: 96 h, with LPS 30 μg/ml; for nitric oxide, Stimulation index: with respect to control; for nitric oxide content: control 20. How it is done: Stimulation of the nitric oxide by murine peritoneal cells The peritoneal cells were obtained as described in the previous test, and incubated for 96 hours at 37° C. in the presence of the compounds in question and of lipopolysaccharide at a concentration of 30 μg/ml. At the end of the treatment the supernatants were collected and the nitric oxide content was determined by the chemiluminescence test described by Palmer R. M. J. et al, Nature, 327, 524, 1987.

The subject of another assay is murine splenocytes. Briefly: Stimulation of in vitro IFN-.tau. production by murine splenocytes (ELISA). The assay is classed as cell-based, BALB/C mice. The following applies: for IFN-.tau. production, Stimulation index / IFN-.tau. production, U/ml: 24 h; for IFN-.tau. production, Stimulation index: with respect to control; for IFN-.tau. production, U/ml: control 31 (Ex. 1, Ex. 2), 41 (Ex. 3). How it is done: Stimulation of in vitro IFN-.tau.production by murine splenocytes The splenic cells were obtained from spleen of BALB/C mice as single cells suspension. The splenocytes thus obtained were resuspended in RPMI 1640 culture medium (Flow Lab., Hertz, UK) containing 5% of fetal calf serum (FCS) (HyClone, ST, Utah, USA) at a final concentrazione of 10^7 cells/ml, and incubated in 96-well plates for 24 hours at 37° C. in the presence of the tested compounds at the indicated concentration. At the end of the incubation the supernatant was collected, filtered by […] filter and freezed to -80° C. until the time of the test carried out by ELISA commercial kit (Genzyme, Boston, Mass., USA).
A general note: In an ELISA, binding on a coated surface is turned into a signal by an enzyme label.

As to `N=C(N)NCCC[C@H](NC(=O)[C@@H]1CCCN1C(=O)C(CCCCN)C(=O)NCN)C(=O)O` (single isomer, unassigned) [Example 1], the “% reduction of infection” value in the assay with Leishmania major (0.1 μg/ml (minimum dose used)) is “over 70%”; with Leishmania major (0.1 μg/ml (minimum dose used), listed as Es. 1), 72%; in the assay on Leishmania major (1.0 μg/ml), 79%; in the assay with Leishmania major (10.0 μg/ml) it was 77%. Further, the “cpm (counts per minute), 3H-thymidine incorporation by living parasites” value with Leishmania major (0.1 μg/ml) was 5,096 cpm; with Leishmania major (1.0 μg/ml), 3,783 cpm; in the assay on Leishmania major (10.0 μg/ml), 4,292 cpm. Moreover, the survival percentage entry with BALB/C mice (0.62 ug/mouse) and in the assay on BALB/C mice (6.2 ug/mouse) was “about 65%” throughout. Besides, the “IL-1 production, Stimulation index” value in assay [1] (0.01 μg/ml) was 0.4; in assay [1] (0.1 μg/ml) it was 0.1; in assay [1] (1.0 μg/ml), 0.1; in assay [1] (10.0 μg/ml), 0,1. For the same compound, the “IL-1 production, U/ml” value in assay [1] (0.01 μg/ml) was 6 U/ml; in assay [1] (0.1 μg/ml), 2 U/ml; in assay [1] (1.0 μg/ml), 2 U/ml; in assay [1] (10.0 μg/ml), 2 U/ml. Further, the “nitric oxide, Stimulation index” value worked out at 2.2 with murine peritoneal cells (0.01 μg/ml), 3.0 in the assay with murine peritoneal cells (0.1 μg/ml), 3.9 in the assay on murine peritoneal cells (1.0 μg/ml) and 2.9 in the assay with murine peritoneal cells (10.0 μg/ml). Further, the “nitric oxide content” value in the assay with murine peritoneal cells (0.01 μg/ml) was 43 nmol/mL; with murine peritoneal cells (0.1 μg/ml), 59 nmol/mL; with murine peritoneal cells (1.0 μg/ml), 77 nmol/mL; in the assay on murine peritoneal cells (10.0 μg/ml) it was 57 nmol/mL. Also, the results for the “IFN-.tau. production, Stimulation index” value in the assay with murine splenocytes (0.1 μg/ml), in the assay with murine splenocytes (1.0 μg/ml) and with murine splenocytes (10.0 μg/ml) were 1.1, 1.9 and 1.6, respectively. The “IFN-.tau. production, U/ml” value is listed as 33 U/ml with murine splenocytes (0.1 μg/ml), 60 U/ml in the assay with murine splenocytes (1.0 μg/ml) and 49 U/ml with murine splenocytes (10.0 μg/ml). The “IFN-.tau. production, change in words” value in the assay with murine splenocytes (1.0 μg/ml) is “doubled”.
Consider `N=C(N)NCCC[C@H](NC(=O)[C@@H]1CCCN1C(=O)C(CCCCN)C(=O)NCN)C(=O)O` (single isomer, unassigned) [ITF 1358], for which the survival percentage result with BALB/C mice (6.25 ug/mouse) is “about 80%”; in the assay on BALB/C mice (62.5 ug/mouse), 75%.

The values are drawn from US5578575A, “Partially modified and retro-inverted tetrapeptides analogues of C-reactive protein fragments” (Italfarmaco S.P.A., priority 1992, dated 1996).
